In patent publication US7307091B2, “Deuterated 3-piperidinopropiophenone and medicaments containing said compounds” (BDD Berolina Drug Development GmbH, priority 2001, dated 2007):

Tests used:
[1] = target: T1, CYP2C19 (Homo sapiens, UniProt P33261); assay: In-vitro biological degradation by cytochrome P450 enzymes: CYP2C19; format: in vitro ADME
T1 construct: expressed in transfected cells; host or cells: cell line named only by the CYP it carries

[2] = target: T2, CYP2D6 (Homo sapiens, UniProt P10635); assay: In-vitro biological degradation by cytochrome P450 enzymes: CYP2D6; format: in vitro ADME
T2 construct: expressed in transfected cells; host or cells: cell line named only by the CYP it carries
T2 sequence (P10635 whole entry): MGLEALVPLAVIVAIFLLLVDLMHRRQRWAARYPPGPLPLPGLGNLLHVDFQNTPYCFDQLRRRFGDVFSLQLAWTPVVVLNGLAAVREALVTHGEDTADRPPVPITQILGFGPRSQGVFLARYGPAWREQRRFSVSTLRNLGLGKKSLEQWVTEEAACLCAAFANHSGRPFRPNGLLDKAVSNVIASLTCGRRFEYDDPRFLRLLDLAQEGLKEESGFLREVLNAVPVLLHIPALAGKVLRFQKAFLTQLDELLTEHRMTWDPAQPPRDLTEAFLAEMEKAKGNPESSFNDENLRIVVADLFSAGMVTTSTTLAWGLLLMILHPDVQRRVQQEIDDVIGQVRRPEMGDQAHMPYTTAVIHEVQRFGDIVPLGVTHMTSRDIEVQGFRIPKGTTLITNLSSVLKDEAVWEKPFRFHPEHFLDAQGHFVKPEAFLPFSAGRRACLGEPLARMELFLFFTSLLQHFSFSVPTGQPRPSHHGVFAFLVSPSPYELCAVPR

[3] = target: T3, CYP1A1 (Homo sapiens, UniProt P04798); assay: In-vitro biological degradation by cytochrome P450 enzymes: CYP1A1; format: in vitro ADME; details: 37° C., pH 7.4, 3 mM NADPH, protein 0.5 mg/mL; FIG. 1
T3 construct: expressed in transfected cells; host or cells: cell line named only by the CYP it carries
T3 sequence (P04798 1-512): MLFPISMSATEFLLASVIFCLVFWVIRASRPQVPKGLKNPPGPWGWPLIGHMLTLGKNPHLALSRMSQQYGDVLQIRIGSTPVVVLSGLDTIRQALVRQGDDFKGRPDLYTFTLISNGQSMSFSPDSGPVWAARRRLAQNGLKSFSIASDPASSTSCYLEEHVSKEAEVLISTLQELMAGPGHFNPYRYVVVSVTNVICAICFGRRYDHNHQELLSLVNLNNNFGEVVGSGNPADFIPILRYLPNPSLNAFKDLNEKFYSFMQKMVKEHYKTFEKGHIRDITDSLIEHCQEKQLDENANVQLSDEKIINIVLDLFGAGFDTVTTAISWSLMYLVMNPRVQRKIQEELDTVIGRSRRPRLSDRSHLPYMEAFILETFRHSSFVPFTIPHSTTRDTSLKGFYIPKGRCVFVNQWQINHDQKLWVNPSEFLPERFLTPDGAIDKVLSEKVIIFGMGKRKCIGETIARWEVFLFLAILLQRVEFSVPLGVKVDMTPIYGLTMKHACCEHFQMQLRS

[4] = target: T4, CYP1A2 (Homo sapiens, UniProt P05177); assay: In-vitro biological degradation by cytochrome P450 enzymes: CYP1A2; format: in vitro ADME; details: 37° C., pH 7.4, 3 mM NADPH, protein 0.5 mg/mL; FIG. 1
T4 construct: expressed in transfected cells; host or cells: cell line named only by the CYP it carries
T4 sequence (P05177 1-516): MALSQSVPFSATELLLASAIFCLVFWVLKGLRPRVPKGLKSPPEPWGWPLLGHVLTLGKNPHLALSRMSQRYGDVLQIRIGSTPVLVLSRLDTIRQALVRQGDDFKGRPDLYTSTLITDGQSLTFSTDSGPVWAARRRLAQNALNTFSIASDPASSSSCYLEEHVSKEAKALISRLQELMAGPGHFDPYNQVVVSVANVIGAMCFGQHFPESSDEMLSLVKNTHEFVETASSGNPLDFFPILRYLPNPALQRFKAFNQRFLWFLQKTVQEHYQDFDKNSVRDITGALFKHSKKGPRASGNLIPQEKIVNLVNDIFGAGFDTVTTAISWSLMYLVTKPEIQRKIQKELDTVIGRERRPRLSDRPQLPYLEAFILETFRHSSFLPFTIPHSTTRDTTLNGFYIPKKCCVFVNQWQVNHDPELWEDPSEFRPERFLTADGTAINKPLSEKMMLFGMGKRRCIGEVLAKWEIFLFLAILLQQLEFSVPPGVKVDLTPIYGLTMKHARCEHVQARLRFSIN

[5] = target: T5, CYP2C8 (Homo sapiens, UniProt P10632); assay: In-vitro biological degradation by cytochrome P450 enzymes: CYP2C8; format: in vitro ADME; details: 37° C., pH 7.4, 3 mM NADPH, protein 0.5 mg/mL; FIG. 1
T5 construct: expressed in transfected cells; host or cells: cell line named only by the CYP it carries
T5 sequence (P10632 1-490): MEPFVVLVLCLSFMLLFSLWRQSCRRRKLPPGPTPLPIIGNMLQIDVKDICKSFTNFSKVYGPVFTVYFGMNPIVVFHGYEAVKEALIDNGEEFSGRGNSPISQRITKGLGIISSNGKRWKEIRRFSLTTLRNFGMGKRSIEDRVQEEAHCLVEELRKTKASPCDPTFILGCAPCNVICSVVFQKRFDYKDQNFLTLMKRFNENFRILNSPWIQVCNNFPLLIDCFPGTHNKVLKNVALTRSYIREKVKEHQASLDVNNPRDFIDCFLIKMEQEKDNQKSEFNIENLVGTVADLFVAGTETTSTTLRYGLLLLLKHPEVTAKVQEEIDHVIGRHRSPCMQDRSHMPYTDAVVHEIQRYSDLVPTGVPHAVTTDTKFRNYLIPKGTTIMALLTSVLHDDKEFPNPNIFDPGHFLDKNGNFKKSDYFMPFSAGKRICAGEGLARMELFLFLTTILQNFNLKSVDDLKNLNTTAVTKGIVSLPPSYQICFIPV

[6] = target: T6, CYP2E1 (Homo sapiens, UniProt P05181); assay: In-vitro biological degradation by cytochrome P450 enzymes: CYP2E1; format: in vitro ADME; details: 37° C., pH 7.4, 3 mM NADPH, protein 0.5 mg/mL; FIG. 1
T6 construct: expressed in transfected cells; host or cells: cell line named only by the CYP it carries
T6 sequence (P05181 whole entry): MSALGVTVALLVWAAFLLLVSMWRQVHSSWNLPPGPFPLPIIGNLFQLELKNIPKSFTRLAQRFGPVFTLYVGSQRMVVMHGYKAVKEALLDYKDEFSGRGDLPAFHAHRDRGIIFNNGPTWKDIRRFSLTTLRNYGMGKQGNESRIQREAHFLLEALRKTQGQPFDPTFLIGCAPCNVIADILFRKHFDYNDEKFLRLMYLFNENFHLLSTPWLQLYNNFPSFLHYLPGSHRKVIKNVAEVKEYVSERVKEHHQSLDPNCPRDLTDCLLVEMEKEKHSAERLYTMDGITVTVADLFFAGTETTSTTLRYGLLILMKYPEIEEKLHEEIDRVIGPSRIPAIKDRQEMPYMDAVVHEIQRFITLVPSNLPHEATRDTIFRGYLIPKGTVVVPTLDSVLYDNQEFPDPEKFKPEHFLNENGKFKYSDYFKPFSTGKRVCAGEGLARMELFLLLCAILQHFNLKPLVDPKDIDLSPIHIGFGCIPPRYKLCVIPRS

[7] = target: T7, CYP3A4 (Homo sapiens, UniProt P08684); assay: In-vitro biological degradation by cytochrome P450 enzymes: CYP3A4; format: in vitro ADME; details: 37° C., pH 7.4, 3 mM NADPH, protein 0.5 mg/mL; FIG. 1
T7 construct: expressed in transfected cells; host or cells: cell line named only by the CYP it carries
T7 sequence (P08684 whole entry): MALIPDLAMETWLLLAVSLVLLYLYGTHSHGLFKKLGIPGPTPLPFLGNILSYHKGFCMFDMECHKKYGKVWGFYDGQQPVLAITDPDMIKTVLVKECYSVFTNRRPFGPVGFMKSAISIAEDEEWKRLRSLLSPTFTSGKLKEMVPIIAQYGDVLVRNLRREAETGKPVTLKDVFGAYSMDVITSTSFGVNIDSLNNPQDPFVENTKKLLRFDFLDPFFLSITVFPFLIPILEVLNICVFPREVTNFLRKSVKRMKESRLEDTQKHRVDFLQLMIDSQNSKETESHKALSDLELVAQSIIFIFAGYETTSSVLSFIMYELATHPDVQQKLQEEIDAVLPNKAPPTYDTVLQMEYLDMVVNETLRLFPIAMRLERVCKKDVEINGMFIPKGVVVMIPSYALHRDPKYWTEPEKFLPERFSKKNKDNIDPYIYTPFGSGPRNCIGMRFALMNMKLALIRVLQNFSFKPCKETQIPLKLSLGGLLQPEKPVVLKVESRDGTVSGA

[8] = strong first-pass effect; background statement; cited from earlier work
[9] = relative to tolperisone, FIG. 3
[10] = 37° C., pH 7.4, 3 mM NADPH, protein 0.5 mg/mL, LC/MS/MS, FIG. 1
[11] = primary metabolites formed by hydroxylation, FIG. 2

T1 sequence (P33261 whole entry): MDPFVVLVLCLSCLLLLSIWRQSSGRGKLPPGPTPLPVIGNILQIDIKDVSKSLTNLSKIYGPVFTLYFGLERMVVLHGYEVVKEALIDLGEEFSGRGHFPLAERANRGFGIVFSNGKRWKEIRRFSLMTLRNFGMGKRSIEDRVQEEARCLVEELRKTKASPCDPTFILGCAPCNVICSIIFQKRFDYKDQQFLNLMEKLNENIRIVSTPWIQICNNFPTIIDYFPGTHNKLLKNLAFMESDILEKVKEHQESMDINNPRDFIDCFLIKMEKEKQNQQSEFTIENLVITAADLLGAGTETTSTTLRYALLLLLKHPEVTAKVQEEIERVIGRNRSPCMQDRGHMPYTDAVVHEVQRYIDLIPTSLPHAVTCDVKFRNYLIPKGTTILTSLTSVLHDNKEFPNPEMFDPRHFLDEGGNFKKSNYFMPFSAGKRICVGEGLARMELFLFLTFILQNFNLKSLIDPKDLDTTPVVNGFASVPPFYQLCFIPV

Structure (SMILES)	factor by which enzymatic hydroxylation by CYP2C19 is retarded in comparison to tolperisone [1, 9]	factor by which enzymatic hydroxylation by CYP2D6 is retarded in comparison to tolperisone [2, 9]	enzymatic degradation (decrease in tolperisone concentration over time) by CYP2C19 [1, 10]	formation of hydroxy metabolites by CYP2C19 [1, 11]	enzymatic degradation (decrease in tolperisone concentration over time) by CYP2D6 [2, 10]	formation of hydroxy metabolites by CYP2D6 [2, 11]	contribution to biological degradation by CYP1A1 [3]	contribution to biological degradation by CYP1A2 [4]	contribution to biological degradation by CYP2C8 [5]	contribution to biological degradation by CYP2E1 [6]	contribution to biological degradation by CYP3A4 [7]	fraction of the administered dose found unchanged in the blood [8]
[2H]c1c([2H])c(C([2H])([2H])[2H])c([2H])c([2H])c1C(=O)C(C)CN1CCCCC1 (stereo not drawn) [I, 1-[4-(trideuteromethyl)tetradeuterophenyl]-2-methyl-3-piperidin-1-yl-1-propanone]	10	10										
Cc1ccc(C(=O)C(C)CN2CCCCC2)cc1 (stereo not drawn) [tolperisone]			transformed above all	to the same extent as the substrate is degraded	transformed above all	to the same extent as the substrate is degraded	contribute at most insignificantly	contribute at most insignificantly	contribute at most insignificantly	contribute at most insignificantly	contribute at most insignificantly	one-fifth
